Measurements published in patent publication US20190343796A1, “COMPOSITION FOR EXTERNAL USE” (FUJIFILM Toyama Chemical Co., Ltd., priority 2016, published 2019).

Test: Solubility of maleate of compound A in representative solvents
Format: physicochemical
Excerpt: Among these solvents, a solvent having a high solubility of compound A and a salt thereof is preferred.

Solubility of maleate of compound A at 25° C. (Benzyl alcohol, 25° C.): 35 g/100 g of solvent
Solubility of maleate of compound A at 25° C. (Butylene glycol, 25° C.): 5 g/100 g of solvent
Solubility of maleate of compound A at 25° C. (Dimethyl sulfoxide, 25° C.): >50 g/100 g of solvent
Solubility of maleate of compound A at 25° C. (Dipropylene glycol, 25° C.): 8 g/100 g of solvent
Solubility of maleate of compound A at 25° C. (Ethanol, 25° C.): 3 g/100 g of solvent
Solubility of maleate of compound A at 25° C. (N-methyl-2-pyrrolidone, 25° C.): >50 g/100 g of solvent
Solubility of maleate of compound A at 25° C. (Polyethylene glycol 200, 25° C.): 10 g/100 g of solvent
Solubility of maleate of compound A at 25° C. (Polyethylene glycol 400, 25° C.): 16 g/100 g of solvent
Solubility of maleate of compound A at 25° C. (Propylene glycol, 25° C.): 10 g/100 g of solvent
Compound: OC1CN(CCCOCCc2ccc3sccc3c2)C1 [maleate of compound A, 1-(3-(2-(1-benzothiophen-5-yl)ethoxy)propyl)azetidin-3-ol]
